These results are taken from article PMC4317219 (Pharmacology Research & Perspectives, 2014).

For series [1], the system named is Sprague-Dawley rats, i.c.v. ouabain-induced hyperactivity. The series can be described thus: Ouabain-induced hyperactivity. The format is in vivo, rat. Conditions: acute; cariprazine 1.0 mg/kg i.p. aCSF vs. saline aCSF (no ouabain); P < 0.05.
Series [2] has as its target mouse D2R-long form (mD2LR) (Mus musculus, UniProt P61168). Kind of series: cell-based.
The conditions of series [3]: cited from earlier work.
Where [4] appears, read: after an i.p. injection, ref [1976].

Sequence of mouse D2R-long form (mD2LR) (P61168 whole entry): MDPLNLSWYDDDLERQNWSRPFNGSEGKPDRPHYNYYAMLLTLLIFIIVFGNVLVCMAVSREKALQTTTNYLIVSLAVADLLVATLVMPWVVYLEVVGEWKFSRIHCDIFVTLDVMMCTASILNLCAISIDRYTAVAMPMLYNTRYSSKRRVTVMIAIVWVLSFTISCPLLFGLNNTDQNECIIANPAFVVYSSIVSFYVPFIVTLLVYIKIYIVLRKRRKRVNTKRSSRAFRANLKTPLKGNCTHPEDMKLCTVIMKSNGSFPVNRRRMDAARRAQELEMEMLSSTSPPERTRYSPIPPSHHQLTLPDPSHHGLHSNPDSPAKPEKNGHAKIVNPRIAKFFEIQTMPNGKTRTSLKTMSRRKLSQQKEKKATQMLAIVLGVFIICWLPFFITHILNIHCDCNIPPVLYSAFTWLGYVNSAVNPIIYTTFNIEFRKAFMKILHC

Usually EC50 stands for the concentration giving half of the maximal effect. `CN(C)C(=O)N[C@H]1CC[C@H](CCN2CCN(c3cccc(Cl)c3Cl)CC2)CC1` [Cariprazine]: the “sedation: inhibition of open field activity” value in series [1] is 72%. In addition, the EC50 in series [2] worked out at 1.4 ± 0.1 nM.

With `[Li]` [lithium], the “lithium levels achieved in the rats” value in series [3] (6.75 mEq/kg i.p. then 2.4 g/kg of food for 7 days, ref [2003]) was 1.01 ± 0.18 mmol/L. For the same compound, in series [3] (setting [4]), the “time to maximum brain levels” value is not above 8 h and the “time to maximum serum level” value is not above 0.5 h.
